Experimental data as given in US10808007B2, “Desacetoxytubulysin H and analogs thereof” (WILLIAM MARSH RICE UNIVERSITY, priority 2015, dated 2020).
Read-outs that look alike come from different tables or passages of the source.

Legend:
Format in all cases: cell-based
[1] = test system: melanoma cell lines; test: NCI-60 cytotoxicity, melanoma; settings: Homo sapiens
Procedure: (§1) A number of the synthesized compounds (i.e. Tb1-Tb23) were evaluated for their activity against a variety of cancer cell lines, namely the NCI-60 human cancer cell line panel representing leukemia, melanoma, lung, colon, brain, ovary, breast, prostate and kidney types of cancer through the In Vitro Cell Line Screening Project (IVCLSP) of the National Cancer Institute (NCI), and a summary of the results is shown in Table 1. […] As there was interest in the activity in certain other cell lines, these and the remaining compounds (Tb1-Tb41, PTb-D42 and PTb-D43) were subjected to further testing against MES SA (uterine sarcoma cells), MES SA DX (multidrug resistant uterine sarcoma cells), and HEK 293T (human embryonic kidney cells). […] Tubulysins are known to be substrates for Pgp pumps (Xiangming, et al., 2013; Kaur, et al., 2006; Szakacs, et al., 2006) as supported by the observed low activities of all tubulysins tested except Tb28, Tb32 and Tb33.

[2] = test system: ovarian cancer cell lines; test: NCI-60 cytotoxicity, ovarian cancer; settings: Homo sapiens; NCI-60
Procedure: as §1

[3] = test system: colon cancer cell lines; test: NCI-60 cytotoxicity, colon cancer; settings: Homo sapiens
Procedure: as §1

[4] = test system: leukemia cancer cell lines; test: NCI-60 cytotoxicity, leukemia; settings: Homo sapiens; NCI-60
Procedure: as §1

[5] = test system: MES SA (uterine sarcoma cells); test: Cytotoxic assay (CellTiter-Glo, 72 h), MES SA; settings: Homo sapiens, MES-SA, read-out: IC50 MES SA
[6] = test system: CNS cancer cell lines; test: NCI-60 cytotoxicity, CNS cancer; settings: Homo sapiens
Procedure: as §1

[7] = test system: non-small cell lung cancer cell lines; test: NCI-60 cytotoxicity, non-small cell lung cancer; settings: Homo sapiens; NCI-60
Procedure: as §1

[8] = test system: prostate cancer cell lines; test: NCI-60 cytotoxicity, prostate cancer; settings: Homo sapiens
Procedure: as §1

[9] = test system: breast cancer cell lines; test: NCI-60 cytotoxicity, breast cancer; settings: Homo sapiens; NCI-60
Procedure: as §1

[10] = test system: HEK 293T (human embryonic kidney cells); test: Cytotoxic assay (CellTiter-Glo, 72 h), HEK 293T; settings: Homo sapiens, HEK-293T, read-out: IC50 HEK 293T
[11] = test system: MES SA DX (multidrug resistant uterine sarcoma cells); test: Cytotoxic assay (CellTiter-Glo, 72 h), MES SA DX; settings: Homo sapiens
[12] = test system: renal cancer cell lines; test: NCI-60 cytotoxicity, renal cancer; settings: Homo sapiens; NCI-60
Procedure: as §1

Row | SMILES | IC50 ([5]; 72 h) [nM] | IC50 [5] [nM] | IC50 ([10]; 72 h) [nM] | IC50 [10] [nM] | IC50 [11] [nM] | other results
1 | COC(=O)[C@@H](C)C[C@H](Cc1ccccc1)NC(=O)c1csc([C@@H](C[C@H](C(C)C)N(C)C(=O)[C@@H](NC(=O)[C@H]2CCCCN2C)C2CC2)OC(C)=O)n1 [Tb20, Methyl (2S,4R)-4-(2-((1R,3R)-1-acetoxy-3-((S)-2-cyclopropyl-N-methyl-2-((R)-1-methylpiperidine-2-carboxamido)acetamido)-4-methylpentyl)thiazole-4-carboxamido)-2-methyl-5-phenylpentanoate] | 0.046 | 0.046 | 0.047 | 0.047 | < 200 | GI50 ([1]; NCI-60): 0.035 nM; GI50 ([1]; NCI-60, selected value): 0.035 nM; GI50 [2]: 0.049 nM; GI50 ([3]; NCI-60): 0.263 nM; GI50 ([3]; NCI-60, selected value): 0.263 nM; GI50 [4]: 0.098 nM; GI50 ([6]; NCI-60): 0.345 nM; GI50 ([6]; NCI-60, selected value): 0.345 nM; GI50 [7]: 0.247 nM; GI50 ([8]; NCI-60): 0.211 nM; GI50 ([8]; NCI-60, selected value): 0.211 nM; GI50 [9]: 0.044 nM; GI50 [12]: 0.27 nM
2 | CCC(C)[C@H](NC(=O)[C@H]1CCCCN1C)C(=O)N(C)[C@H](C[C@@H](OC(C)=O)c1nc(C(=O)NC23CC(C(=O)OC)(C2)C3)cs1)C(C)C (stereo in doubt) [Tb14, Methyl 3-(2-((1R,3R)-1-acetoxy-3-((2S,3S)—N,3-dimethyl-2-((R)-1-methylpiperidine-2-carboxamido)-pentanamido)-4-methylpentyl)thiazole-4-carboxamido)bicyclo[1.1.1]pentane-1-carboxylate] | 0.35 | 0.35 | 0.11 | 0.11 | > 50 | GI50 ([1]; NCI-60): 0.137 nM; GI50 ([1]; NCI-60, selected value): 0.137 nM; GI50 [2]: 0.256 nM; GI50 ([3]; NCI-60): 0.433 nM; GI50 ([3]; NCI-60, selected value): 0.433 nM; GI50 [4]: 0.064 nM; GI50 ([6]; NCI-60): 0.382 nM; GI50 ([6]; NCI-60, selected value): 0.382 nM; GI50 [7]: 0.156 nM; GI50 ([8]; NCI-60): 0.449 nM; GI50 ([8]; NCI-60, selected value): 0.449 nM; GI50 [9]: 0.267 nM; GI50 [12]: 0.364 nM
3 | CC[C@H](C)[C@H](NC(=O)[C@H]1CCCCN1C)C(=O)N(C)[C@H](C[C@@H](OC(C)=O)c1cccc(C(=O)N[C@@H](Cc2ccccc2)C[C@H](C)C(=O)O)n1)C(C)C [Tb39, (2S,4R)-4-(6-((1R,3R)-1-acetoxy-3-((2S,3S)—N,3-dimethyl-2-((R)-1-methylpiperidine-2 carboxamido)pentanamido)-4-methylpentyl)picolinamido)-2-methyl-5-phenylpentanoic Acid] | 0.891 | 0.891 | 0.194 | 0.194 | < 500 | –
4 | CC(=O)O[C@H](C[C@H](C(C)C)N(C)C(=O)[C@@H](NC(=O)[C@H]1CCCCN1C)C1CC1)c1cccc(C(=O)N[C@@H](Cc2ccccc2)C[C@H](C)C(=O)O)n1 [Tb37, (2S,4R)-4-(6-((1R,3R)-1-Acetoxy-3-((S)-2-cyclopropyl-N-methyl-2-((R)-1-methylpiperidine-2-carbox-amido)acetamido)-4-methylpentyl)picolinamido)-2-methyl-5-phenylpentanoic Acid] | 14.4 | – | 3.52 | – | > 1000 | –
5 | COC(=O)[C@@H](C)C[C@H](Cc1ccccc1)NC(=O)c1csc([C@@H](C[C@H](C(C)C)N(C)C(=O)C2(NC(=O)[C@H]3CCCCN3C)CCC2)OC(C)=O)n1 [Tb28, (2S,4R)-Methyl 4-(2-((1R,3R)-1-acetoxy-4-methyl-3-(N-methyl-1-((R)-1-methylpiperidine-2-carboxamido)cyclobutanecarboxamido)pentyl)thiazole-4-carboxamido)-2-methyl-5-phenylpentanoate] | 1.13 | – | 0.69 | – | 81.7 | –
6 | COC(=O)[C@@H](C)C[C@H](Cc1ccccc1)NC(=O)c1cccc([C@@H](C[C@H](C(C)C)N(C)C(=O)[C@@H](NC(=O)[C@H]2CCCCN2C)C2CC2)OC(C)=O)n1 [Tb36, Methyl (2S,4R)-4-(6-((1R,3R)-1-acetoxy-3-((S)-2-cyclopropyl-N-methyl-2-((R)-1-methylpiperidine-2-carboxamido)acetamido)-4-methylpentyl)picolinamido)-2-methyl-5-phenylpentanoate] | 0.308 | 0.308 | 0.631 | 0.631 | > 1000 | –
7 | COC(=O)[C@@H](C)C[C@H](Cc1ccccc1)NC(=O)c1csc([C@@H](C[C@H](C(C)C)N(C)C(=O)[C@@H](NC(=O)[C@H]2CCCCN2C)C2CCCCC2)OC(C)=O)n1 [Tb33, (2S,4R)-Methyl 4-(2-((1R,3R)-1-acetoxy-3-((S)-2-cyclohexyl-N-methyl-2-((R)-1-methylpiperidine-2-carboxamido)acetamido)-4-methylpentyl)thiazole-4-carboxamido)-2-methyl-5-phenylpentanoate] | 0.066 | 0.066 | 0.048 | 0.048 | 101 | –
8 | CC[C@H](C)[C@H](NC(=O)[C@H]1CCCCN1C)C(=O)N(C)[C@H](C[C@@H](OC(C)=O)c1cccc(C(=O)N[C@@H](Cc2ccccc2)C[C@H](C)C(=O)OC)n1)C(C)C [Tb38, Methyl (2S,4R)-4-(6-((1R,3R)-1-acetoxy-3-((2S,3S)—N,3-dimethyl-2-((R)-1-methylpiperidine-2-carboxamido)pentanamido)-4-methylpentyl)picolinamido)-2-methyl-5-phenylpentanoate] | 0.357 | 0.357 | 0.574 | 0.574 | < 500 | –
9 | CC(=O)O[C@H](C[C@H](C(C)C)N(C)C(=O)[C@@H](NC(=O)[C@H]1CCCCN1C)C1CC1)c1nc(C(=O)N[C@@H](Cc2ccccc2)C[C@H](C)C(=O)O)cs1 [Tb30, (2S,4R)-4-(2-((1R,3R)-1-Acetoxy-3-((S)-2-cyclopropyl-N-methyl-2-((R)-1-methylpiperidine-2-carboxamido)acetamido)-4-methylpentyl)thiazole-4-carboxamido)-2-methyl-5-phenylpentanoic Acid] | 4.09 | – | 0.35 | – | > 100 | –
10 | COC(=O)[C@@H](C)C[C@H](Cc1ccccc1)NC(=O)c1csc([C@@H](C[C@H](C(C)C)N(C)C(=O)C2(NC(=O)[C@H]3CCCCN3C)CC2)OC(C)=O)n1 [Tb27, (2S,4R)-Methyl 4-(2-((1R,3R)-1-acetoxy-4-methyl-3-(N-methyl-1-((R)-1-methylpiperidine-2-carboxamido)cyclopropanecarboxamido)pentyl)thiazole-4-carboxamido)-2-methyl-5-phenylpentanoate] | 2.46 | – | 1.96 | – | > 100 | –
11 | CC[C@H](C)[C@H](NC(=O)c1cnccn1)C(=O)N(C)[C@H](C[C@@H](OC(C)=O)c1nc(C(=O)N[C@@H](Cc2ccccc2)C[C@H](C)C(=O)OC)cs1)C(C)C [Tb35, (2S,4R)-methyl 4-(2-((1R,3R)-1-acetoxy-3-((2S,3S)—N,3-dimethyl-2-(pyrazine-2-carboxamido)pentanamido)-4-methylpentyl)thiazole-4-carboxamido)-2-methyl-5-phenylpentanoate] | > 1000 | – | > 500 | – | > 1000 | –
12 | COC(=O)[C@@H](C)C[C@H](Cc1cn(C)c2ccccc12)NC(=O)c1csc([C@@H](C[C@H](C(C)C)N(C)C(=O)[C@@H](NC(=O)[C@H]2CCCCN2C)C(C)C)OC(C)=O)n1 [Tb41, Methyl(2S,4R)-4-(2-((1R,3R)-1-acetoxy-3-((S)—N,3-dimethyl-2-((R)-1-methylpiperidine-2-carboxamido)butanamido)-4-methylpentyl)thiazole-4-carboxamido)-2-methyl-5-(1-methyl-1H-indol-3-yl)pen-tanoate] | > 1000 | – | 21.1 | – | > 1000 | –
13 | COC(=O)[C@@H](C)C[C@H](Cc1ccccc1)NC(=O)c1csc([C@@H](C[C@H](C(C)C)N(C)C(=O)[C@@H](NC(=O)[C@H]2CCCCN2C)C(C)C)OC(C)=O)n1 [Tb32, (2S,4R)-Methyl 4-(2-((1R,3R)-1-acetoxy-3-((S)—N,3-dimethyl-2-((R)-1-methylpiperidine-2-carboxamido)butanamido)-4-methylpentyl)thiazole-4-carboxamido)-2-methyl-5-phenylpentanoate] | 0.012 | 0.012 | 0.002 | 0.002 | 1.29 | –
14 | COC(=O)[C@H](Cc1ccccc1)NC(=O)c1csc([C@@H](C[C@H](C(C)C)N(C)C(=O)[C@@H](NC(=O)[C@H]2CCCCN2C)C2CC2)OC(C)=O)n1 [Tb24, Methyl(2-((1R,3R)-1-acetoxy-3-((S)-2-cyclopropyl-N-methyl-2-((R)-1-methylpiperidine-2-carboxam-ido)acetamido)-4-methylpentyl)thiazole-4-carbonyl)-L-phenylalaninate] | 13.1 | – | 9.69 | – | > 100 | –
